Reference: ChEMBL document CHEMBL2074507, “Transport of small organic cations in the rat liver. The role of the organic cation transporter OCT1” (Naunyn Schmiedebergs Arch Pharmacol, 1996)

T1: Solute carrier family 22 member 1 (Rattus norvegicus, UniProt Q63089)
T1 sequence (Q63089 whole entry): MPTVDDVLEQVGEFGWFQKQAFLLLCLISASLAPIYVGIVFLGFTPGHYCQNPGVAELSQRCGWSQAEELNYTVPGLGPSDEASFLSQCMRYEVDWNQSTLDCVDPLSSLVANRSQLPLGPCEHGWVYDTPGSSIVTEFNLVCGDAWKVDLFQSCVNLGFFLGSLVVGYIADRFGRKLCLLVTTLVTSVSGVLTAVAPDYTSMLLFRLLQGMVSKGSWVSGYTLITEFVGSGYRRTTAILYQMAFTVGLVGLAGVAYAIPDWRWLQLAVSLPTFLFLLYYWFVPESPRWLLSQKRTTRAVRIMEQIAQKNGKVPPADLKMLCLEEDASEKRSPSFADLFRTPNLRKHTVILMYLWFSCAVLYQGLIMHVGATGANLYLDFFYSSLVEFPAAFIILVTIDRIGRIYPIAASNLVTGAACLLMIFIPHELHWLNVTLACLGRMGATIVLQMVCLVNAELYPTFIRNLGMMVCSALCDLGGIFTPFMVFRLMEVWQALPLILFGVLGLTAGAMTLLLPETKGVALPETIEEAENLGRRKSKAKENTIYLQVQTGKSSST

B1: Solute carrier family 22 member 1 (Rattus norvegicus) (protein)
chain: MPTVDDVLEQVGEFGWFQKQAFLLLCLISASLAPIYVGIVFLGFTPGHYCQNPGVAELSQRCGWSQAEELNYTVPGLGPSDEASFLSQCMRYEVDWNQSTLDCVDPLSSLVANRSQLPLGPCEHGWVYDTPGSSIVTEFNLVCGDAWKVDLFQSCVNLGFFLGSLVVGYIADRFGRKLCLLVTTLVTSVSGVLTAVAPDYTSMLLFRLLQGMVSKGSWVSGYTLITEFVGSGYRRTTAILYQMAFTVGLVGLAGVAYAIPDWRWLQLAVSLPTFLFLLYYWFVPESPRWLLSQKRTTRAVRIMEQIAQKNGKVPPADLKMLCLEEDASEKRSPSFADLFRTPNLRKHTVILMYLWFSCAVLYQGLIMHVGATGANLYLDFFYSSLVEFPAAFIILVTIDRIGRIYPIAASNLVTGAACLLMIFIPHELHWLNVTLACLGRMGATIVLQMVCLVNAELYPTFIRNLGMMVCSALCDLGGIFTPFMVFRLMEVWQALPLILFGVLGLTAGAMTLLLPETKGVALPETIEEAENLGRRKSKAKENTIYLQVQTGKSSST

Key:
[1] = molecular target: T1, Solute carrier family 22 member 1; test: TP_TRANSPORTER: inhibition of MPP+ uptake in OCT1-expressing HEK293 cells; assay type: functional, cell-based
[2] = substrate: C[n+]1ccc(-c2ccccc2)cc1; test: TP_TRANSPORTER: uptake in OCT1-expressing HEK293 cells; assay type: functional, cell-based

Molecule	Ki [1]	Km [2]
CCN1/C(=C/c2ccc3ccccc3[n+]2CC)C=Cc2ccccc21	0.5 µM	–
Clc1cccc(Cl)c1N=C1NCCN1 [CLONIDINE]	1.4 µM	–
C[C@]12C[C@H](O)[C@H]3[C@@H](CCC4=CC(=O)CC[C@@]43C)[C@@H]1CC[C@@H]2C(=O)CO [CORTICOSTERONE]	72 µM	–
CC[n+]1c(CC2C=C(C)N=C(c3ccccc3)N2C)ccc2ccccc21 (configuration not stated) [Cyanine-863]	0.67 µM	–
CC(C)N1/C(=C\c2cc[n+](C(C)C)c3ccccc23)C=Cc2ccccc21 [DISPROCYNIUM24]	0.11 µM	–
COc1cc(C(O)CNC(C)C)ccc1O (configuration not stated) [METIPRENALINE]	25 µM	–
B1	–	13 µM
